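Method: 48-hour compound exposure of cells in 96-well plates, five concentrations, linear interpolation of endpoints. GI50: concentration for 50% inhibition of growth.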 Activity calls are given as the source filed them. Cut-off read from the data, not from the text of the source: active = GI50 up to about 1.1 µM and inactive = higher.
Columns and labels:
Assay in all cases: NCI tumour cell line growth inhibition, 48 h
[1] = system: A498
[2] = system: ACHN
[3] = system: CAKI-1
[4] = system: EKVX
[5] = system: HCT-116
[6] = system: HCT-15
[7] = system: KM12
[8] = system: MOLT-4
[9] = system: Malme-3M
[10] = system: NCI-H226
[11] = system: NCI-H23
[12] = system: RXF 393
[13] = system: SF-295
[14] = system: SK-MEL-5
[15] = system: SR
[16] = system: SW-620
[17] = system: UACC-62
[18] = system: UO-31
[19] = system: MDA-MB-435
[20] = system: NCI/ADR-RES

Compound | GI50 [1] | GI50 [2] | GI50 [3] | GI50 [4] | GI50 [5] | GI50 [6] [µM] | GI50 [7] | GI50 [8] | GI50 [9] | GI50 [10] | GI50 [11] | GI50 [12] | GI50 [13] | GI50 [14] | GI50 [15] | GI50 [16] | GI50 [17] | GI50 [18] | GI50 [19] | GI50 [20]
COc1cc(OC)c2c(c1)C(=O)C(CC1(C)OCCCO1)=CC2=O | 18.4 µM (inactive) | 9.75 µM (inactive) | 8 µM (inactive) | 14.3 µM (inactive) | 5.35 µM (inactive) | 3.92 | 14.3 µM (inactive) | 2.05 µM (inactive) | 8.45 µM (inactive) | 19.6 µM (inactive) | 13.2 µM (inactive) | 3.54 µM (inactive) | 14.6 µM (inactive) | 8.04 µM (inactive) | 1.29 µM (inactive) | 7.57 µM (inactive) | 5 µM (inactive) | 11 µM (inactive) |  | 
CCOC(=O)C1(Br)C(c2ccccc2)NC(=O)NC1(C)Br (stereo not drawn) | > 100 µM (inactive) | > 100 µM (inactive) | 18.5 µM (inactive) | 95.3 µM (inactive) | 60.4 µM (inactive) | > 100 | > 100 µM (inactive) | 73.3 µM (inactive) | > 100 µM (inactive) | > 100 µM (inactive) | 67.3 µM (inactive) | 25.1 µM (inactive) | > 100 µM (inactive) | 57.4 µM (inactive) | 57.1 µM (inactive) | 0.332 µM (active) | 52.8 µM (inactive) | > 100 µM (inactive) |  | 
CSc1ccc(OCC2OC2O)cc1 (stereo not drawn) | 28.1 µM (inactive) | 40.5 µM (inactive) | > 50.9 µM (inactive) | > 93.1 µM (inactive) | 17.3 µM (inactive) | 23.5 | 36.2 µM (inactive) | 19.4 µM (inactive) | 98.2 µM (inactive) | 36.8 µM (inactive) | 42.5 µM (inactive) | > 63.7 µM (inactive) | 41.1 µM (inactive) | 16 µM (inactive) | 45.2 µM (inactive) | 18.4 µM (inactive) | 47.9 µM (inactive) | 51.6 µM (inactive) |  | 
CC(=O)OCC1=C(CCC#N)N2C(=O)C(NC(=O)Cc3cccs3)C2[S+]([O-])C1 (stereo not drawn) | > 100 µM (inactive) | > 100 µM (inactive) | > 100 µM (inactive) | > 100 µM (inactive) | > 100 µM (inactive) | > 100 | > 100 µM (inactive) | > 100 µM (inactive) | > 100 µM (inactive) | > 100 µM (inactive) | > 100 µM (inactive) | > 100 µM (inactive) | > 100 µM (inactive) | > 100 µM (inactive) | > 100 µM (inactive) | > 100 µM (inactive) | > 100 µM (inactive) | > 100 µM (inactive) |  | 
CCC12C=CCN3CC[C@]4(C(=C(C(=O)OC)[C@@H]1Nc1ncnc5c1ncn5C1OC(COC(C)=O)C(OC(C)=O)C1OC(C)=O)Nc1ccccc14)C32 (stereo partly drawn) | 2.04 µM (inactive) | 2.34 µM (inactive) | 3.42 µM (inactive) | 4.78 µM (inactive) | 2.82 µM (inactive) | 3.04 | 2.42 µM (inactive) | 3.3 µM (inactive) | 4.9 µM (inactive) | 2.36 µM (inactive) | 1.97 µM (inactive) | 2 µM (inactive) | 3.05 µM (inactive) | 2.55 µM (inactive) | 2.34 µM (inactive) | 2.45 µM (inactive) | 3.11 µM (inactive) | 5.62 µM (inactive) |  | 
CCOc1cccc2nc3cccc(C(=O)NCCN(C)C)c3nc12 | 0.74 µM (active) | 0.372 µM (active) | 3.16 µM (inactive) | 2.25 µM (inactive) | 0.447 µM (active) | 1.08 | 0.867 µM (active) | 0.333 µM (active) | 0.995 µM (active) | 0.506 µM (active) | 1.39 µM (inactive) | 1.59 µM (inactive) | 1.53 µM (inactive) | 1.78 µM (inactive) | 0.305 µM (active) | 0.543 µM (active) | 1.47 µM (inactive) | 2.19 µM (inactive) |  | 
C[N+]1(C)C2Cc3ccccc3C1Cc1ccccc12 | > 100 µM (inactive) | > 100 µM (inactive) |  | > 100 µM (inactive) | > 100 µM (inactive) | > 100 | > 100 µM (inactive) | > 100 µM (inactive) | > 100 µM (inactive) | > 100 µM (inactive) | > 100 µM (inactive) | > 100 µM (inactive) | > 100 µM (inactive) | > 100 µM (inactive) |  | > 100 µM (inactive) | 71.6 µM (inactive) | > 100 µM (inactive) | > 100 µM (inactive) | > 100 µM (inactive)
COC(=O)/C([Se]c1c(C)cc(C)cc1C)=C(/[Se]c1c(C)cc(C)cc1C)C(=O)OC | > 100 µM (inactive) | > 100 µM (inactive) | > 100 µM (inactive) | > 100 µM (inactive) | > 100 µM (inactive) | 81.3 | > 100 µM (inactive) | 47.3 µM (inactive) | > 100 µM (inactive) | > 100 µM (inactive) | > 100 µM (inactive) | > 100 µM (inactive) | > 100 µM (inactive) | 86.3 µM (inactive) | 39.9 µM (inactive) | > 100 µM (inactive) | > 100 µM (inactive) | > 100 µM (inactive) |  | 
CC1OC(OC2C(O[C@H]3CC[C@@]4(C)C(=CC[C@H]5[C@@H]6C[C@@H]7O[C@]8(CC[C@@H](CO)CO8)[C@@H](C)[C@@H]7[C@@]6(C)CC[C@@H]54)C3)OC(CO)C(O)C2OC2OC(CO)C(O)C(O)C2O)C(O)C(O)C1O (stereo partly drawn) | 2.01 µM (inactive) | 1.73 µM (inactive) | 1.95 µM (inactive) | 2.07 µM (inactive) | 1.65 µM (inactive) | 1.91 | 1.91 µM (inactive) |  | 1.81 µM (inactive) | 1.97 µM (inactive) | 2.01 µM (inactive) | 1.53 µM (inactive) |  | 1.64 µM (inactive) |  | 1.86 µM (inactive) | 1.83 µM (inactive) | 2.52 µM (inactive) | 2.01 µM (inactive) | 1.97 µM (inactive)
CC(=O)N(CN1C(=O)CCC1C(=O)O)c1ccccc1Cl (stereo not drawn) | > 100 µM (inactive) | > 100 µM (inactive) | > 100 µM (inactive) | > 100 µM (inactive) | > 100 µM (inactive) | > 100 | > 100 µM (inactive) | > 100 µM (inactive) | > 100 µM (inactive) | > 100 µM (inactive) | > 100 µM (inactive) | > 100 µM (inactive) | > 100 µM (inactive) | > 100 µM (inactive) |  | > 100 µM (inactive) | > 100 µM (inactive) | > 100 µM (inactive) | > 100 µM (inactive) | > 100 µM (inactive)
Oc1ccc2ccccc2c1/N=N/c1cc(Cl)ccc1Cl |  | 11 µM (inactive) | 34.4 µM (inactive) | 9.06 µM (inactive) | 15.6 µM (inactive) | > 50 | 17.7 µM (inactive) | 15.4 µM (inactive) | 24.1 µM (inactive) | 49 µM (inactive) | 44.5 µM (inactive) | 27 µM (inactive) | 9.73 µM (inactive) | 38.5 µM (inactive) |  | 32.6 µM (inactive) | 15.9 µM (inactive) | 21.3 µM (inactive) | > 50 µM (inactive) | 31.6 µM (inactive)
Ic1cc2c(cc1C1SCCCS1)OCO2 | > 100 µM (inactive) | > 100 µM (inactive) | > 100 µM (inactive) | > 100 µM (inactive) | > 100 µM (inactive) | > 100 | > 100 µM (inactive) | > 100 µM (inactive) | > 100 µM (inactive) | > 100 µM (inactive) | 64.7 µM (inactive) | > 100 µM (inactive) | > 100 µM (inactive) | > 100 µM (inactive) | > 100 µM (inactive) | > 100 µM (inactive) | > 100 µM (inactive) | > 100 µM (inactive) |  | 
COc1c(C2(c3ccc(F)cc3)SCCCS2)c(=O)c1=O |  | > 100 µM (inactive) | > 100 µM (inactive) | > 100 µM (inactive) | > 100 µM (inactive) | > 100 | > 100 µM (inactive) | > 100 µM (inactive) | > 100 µM (inactive) | > 100 µM (inactive) | > 100 µM (inactive) | > 100 µM (inactive) | > 100 µM (inactive) | > 100 µM (inactive) |  | > 100 µM (inactive) | > 100 µM (inactive) | > 100 µM (inactive) | > 100 µM (inactive) | > 100 µM (inactive)
Cc1ccc(/C=N/n2c(=O)[nH]c3ccccc3c2=O)cc1 | > 100 µM (inactive) | > 100 µM (inactive) | > 100 µM (inactive) | > 100 µM (inactive) | > 100 µM (inactive) | > 100 | > 100 µM (inactive) | > 100 µM (inactive) |  | > 100 µM (inactive) | > 100 µM (inactive) |  | > 100 µM (inactive) | > 100 µM (inactive) | > 100 µM (inactive) | > 100 µM (inactive) | > 100 µM (inactive) | > 100 µM (inactive) | > 100 µM (inactive) | 
CCCCCCCCCCOC1C(C(C)OCCCN(C)C)OC2OC3(CCCCC3)OC21 (stereo not drawn) |  | 17.1 µM (inactive) | 13.7 µM (inactive) | 18.2 µM (inactive) | 13.4 µM (inactive) | 1.36 |  | 12.9 µM (inactive) | 15.2 µM (inactive) | 17.2 µM (inactive) | 10.2 µM (inactive) | 14.9 µM (inactive) | 17.5 µM (inactive) | 15.8 µM (inactive) |  | 12.7 µM (inactive) | 13.3 µM (inactive) | 17.9 µM (inactive) | 16.2 µM (inactive) | 17 µM (inactive)
